The record followed here is article PMC5007854, “β-Nitrostyrenes as Potential Anti-leishmanial Agents” (Frontiers in Microbiology, 2016).

In brackets after ≈: the same amount, converted by molar mass.

As usually defined, the MIC is the lowest concentration found to suppress growth. The term MFC denotes the lowest tested concentration that kills the fungus rather than only halting it. By MBC is commonly meant the lowest tested concentration that kills the bacteria rather than only halting them. By melting point is commonly meant the temperature, or range, at which the solid turns liquid.

The test system of data set [1] is Candida albicans ATCC 90028. Description: Broth microdilution antifungal susceptibility (MIC/MFC). It is filed as cell-based. Particulars: Candida albicans; for MIC: ATCC90028, 48 h, broth microdilution, 35°C, 48 h, read-out: MIC, Ca ATCC 90028; for MFC: ATCC90028, ≥99.9% reduction of original inoculum, read-out: MFC, Ca ATCC 90028. An excerpt: (§1) One reference each of the following species was used for their in vitro susceptibility to β-nitrostyrene in this study: Staphylococcus aureus ATCC 29213, Staphylococcus epidermidis ATCC 14990, Escherichia coli ATCC 25922, Pseudomonas aeruginosa ATCC 27853, Candida albicans ATCC 90028, Candida glabrata ATCC 90030, Aspergillus fumigatus ATCC 16424 and Aspergillus niger ATCC 16404. These strains were procured from the American Type Culture Collection (ATCC, Manassas, VA, USA).
(§2) The antibacterial and antifungal activities of the β-nitrostyrenes were performed by broth microdilution methods as per the guidelines of Clinical and Laboratory Standard Institute (Wayne, [1998], [2008a],[b],[c]) by using Mueller-Hinton broth (MHB; Becton-Dickinson, Cockeysville, MD, USA) supplemented with calcium (25 mg/L) and magnesium (12.5 mg/L) for bacterial strains while as RPMI 1640 medium with L-glutamine and without sodium bicarbonate, buffered to pH 7.0 with 0.165 M 3-(N-morpholino) propanesulfonic acid (MOPS; both from Sigma) was used for fungal strains. Stock solutions were prepared in 100% dimethyl sulfoxide (DMSO; Sigma; distilled water was used for ciprofloxacin), with a final DMSO concentration of 1% (vol. per vol.) and two-fold serial dilutions were prepared in media in amounts of 100 μL per well in 96-well U-bottom microtiter plates (Tarsons, Kolkata, India) to yield twice the final concentration required for testing, which ranged from 64 to 0.12 μg/mL for β-nitrostyrenes and 16 to 0.03 μg/mL for ciprofloxacin as well as amphotericin B. Stock inoculum suspensions of the bacteria, Candida species and Aspergillus species were prepared in sterile normal saline (0.85%) containing 0.05% polysorbate 20 (NST) from overnight (3 to 5-day old for Aspergillus species) strains grown on Trypticase soy agar (TSA; Becton-Dickinson) and potato dextrose agar (Difco Laboratories, Detroit, MI, USA) respectively at 35°C. Inocula were verified for each assay by plating onto agar plates for colony enumeration. These suspensions were further diluted in the respective test medium and a 100 μl volume of this diluted inoculum was added to each well of the plate, resulting in a final inoculum concentration of approximately 5 × 10^5 CFU/mL for bacter1ia, (Wayne, [2008a]) approximately 2.5 × 10^4 CFU/ml for Candida species (Pfaller et al., [2004]) while as 0.4 × 10^4 to 5 × 10^4 CFU/mL for Aspergillus species (Wayne, [2008c]). Untreated growth control, vehicle control (DMSO) and sterility control wells were included for each isolate tested. Ciprofloxacin and amphotericin B served as the standard drug controls for bacterial and fungal strains, respectively. The microtiter plates were incubated at 35°C for 24 h for bacterial strains and 48 h for fungal strains. The plates were read visually and the minimum inhibitory concentration (MIC) was defined as the lowest concentration of test sample that prevented visible growth with respect to the growth control.
(§3) The minimum bactericidal concentration (MBC) and minimum fungicidal concentration (MFC) were determined by plating 100 μl volumes on agar plates from the wells showing no visible growth (clear MIC well). The plates were incubated as described above in MIC measurements. […] All experiments were conducted twice in duplicates on separate occasions with freshly prepared inoculums and stock solutions.
(Dilution methods test growth across graded concentrations, often in twofold steps.)

Data set [2] concerns Aspergillus fumigatus ATCC 16424. The description is as above. It is filed as cell-based. Particulars: Aspergillus fumigatus; for MIC: ATCC16424, 48 h, broth microdilution, 35°C, 48 h, read-out: MIC, Af ATCC 16424; for MFC: ATCC16424, ≥99.9% reduction of original inoculum, read-out: MFC, Af ATCC 16424.
Source text: as §1, §2, §3

Data set [3] deals with Aspergillus niger ATCC 16404. Described as above. It is filed as cell-based. The following applies: Aspergillus niger; for MIC: ATCC16404, 48 h, broth microdilution, 35°C, 48 h, read-out: MIC, An ATCC 16404; for MFC: ATCC16404, ≥99.9% reduction of original inoculum, read-out: MFC, An ATCC 16404.
Source text: as §1, §2, §3

The test system of data set [4] is Candida glabrata ATCC 90030. The description is as above. It is filed as cell-based. Particulars: Nakaseomyces glabratus; for MIC: ATCC90030, 48 h, broth microdilution, 35°C, 48 h, read-out: MIC, Cg ATCC 90030; for MFC: ATCC90030, ≥99.9% reduction of original inoculum, read-out: MFC, Cg ATCC 90030.
Source text: as §1, §2, §3

Data set [5] deals with Escherichia coli ATCC 25922. In words: Broth microdilution antibacterial susceptibility (MIC/MBC). It is filed as cell-based. The following applies: Escherichia coli; for MIC: ATCC25922, 24 h, broth microdilution, 35°C, 24 h, read-out: MIC, Ec ATCC 25922; for MBC: ATCC25922, ≥99.9% reduction of original inoculum, read-out: MBC, Ec ATCC 25922.
Source text: as §1, §2, §3

Data set [6] relates to Staphylococcus epidermidis ATCC 14990. The data set is described as above. It is filed as cell-based. Particulars: Staphylococcus epidermidis; for MIC: ATCC14990, 24 h, broth microdilution, 35°C, 24 h, read-out: MIC, Se ATCC 14990; for MBC: ATCC14990, ≥99.9% reduction of original inoculum, read-out: MBC, Se ATCC 14990.
Source text: as §1, §2, §3

The subject of data set [7] is Staphylococcus aureus ATCC 29213. Described as above. It is filed as cell-based. The following applies: Staphylococcus aureus; for MIC: ATCC29213, 24 h, broth microdilution, 35°C, 24 h, read-out: MIC, Sa ATCC 29213; for MBC: ATCC29213, ≥99.9% reduction of original inoculum, read-out: MBC, Sa ATCC 29213.
Source text: as §1, §2, §3

Data set [8] relates to Pseudomonas aeruginosa ATCC 27853. Described as above. The following applies: Pseudomonas aeruginosa; for MIC: ATCC27853, 24 h, broth microdilution, 35°C, 24 h, read-out: MIC, Pa ATCC 27853; for MBC: ATCC27853, ≥99.9% reduction of original inoculum, read-out: MBC, Pa ATCC 27853. It is filed as cell-based.
Source text: as §1, §2, §3

Data set [9] deals with L. donovani promastigotes. Description: Anti-leishmanial screening at 100 μM, parasite viability by microscopy. Particulars: L. donovani promastigotes. It is filed as cell-based, Leishmania donovani. The protocol:
L. donovani parasites (MHOM/IN/83/AG83) were maintained in vivo in BALB/c mice. Promastigotes were routinely cultured at 22°C in medium M199 supplemented with 10% heat inactivated fetal bovine serum (FBS, HiMedia Laboratories, Mumbai, India), penicillin 100 (IU/ml), streptomycin (100 μg/ml). Log phase promastigotes were sub-cultured every 72–96 h, the inoculum being 2 × 10^6 cells/ml (Afrin et al., [2002]).
Nitrostyrine series were screened for their antileishmanial activity against L. donovani promastigotes in vitro. Promastigotes of L. donovani (2 × 10^6 cells/mL) in M199 medium were incubated at 22°C for 72 h with each compound at a concentration of 100 μM. Amphotericin B (AmB) served as reference drug, 0.2% DMSO was used as solvent control. Parasites with media alone were taken as control. Parasite viability was determined microscopically after 72 h (Islamuddin et al., [2014b]).

For `CC/C(=C\c1ccc(OC)cc1)[N+](=O)[O-]` [Compound 15, 1-methoxy-4-((E)-2-nitrobut-1-enyl) benzene], the MIC in data set [1] is 32 µg/mL (≈ 154 µM); in data set [2] it was 8 µg/mL (≈ 38.6 µM); in [3], 8 µg/mL (≈ 38.6 µM); in [4], 16 µg/mL (≈ 77.2 µM); in data set [5], greater than 64 µg/mL; in [6], 16 µg/mL (≈ 77.2 µM). Moreover, the figures for the MIC in data set [7] and in [8] were 16 µg/mL (≈ 77.2 µM) and greater than 64 µg/mL, respectively. Also, the MFC amounted to 32 µg/mL (≈ 154 µM) in data set [1], 16 µg/mL (≈ 77.2 µM) in data set [2], 8 µg/mL (≈ 38.6 µM) in [3] and 16 µg/mL (≈ 77.2 µM) in [4]. The MBC in data set [5] is greater than 64 µg/mL; in data set [6], 16 µg/mL (≈ 77.2 µM); in data set [7], 32 µg/mL (≈ 154 µM); in [8], greater than 64 µg/mL. In data set [9], the “Anti-leishmanial activity, in words (SAR discussion)” value (from here on “Anti-leishmanial activity, in words”) is “reduced the activity”.
On to `COc1ccc(/C=C/[N+](=O)[O-])cc1OC` [Compound 22, 1,2-dimethoxy-4-((E)-2-nitrovinyl) benzene], for which the MIC in data set [1] was 64 µg/mL (≈ 306 µM); in data set [2] it was 32 µg/mL (≈ 153 µM); in [3], 32 µg/mL (≈ 153 µM); in data set [4] it was 16 µg/mL (≈ 76.5 µM); in data set [5], greater than 64 µg/mL; in data set [6] it was 64 µg/mL (≈ 306 µM). Also, the MIC in [7] and in data set [8] was greater than 64 µg/mL throughout. Also, the MFC is 64 µg/mL (≈ 306 µM) in data set [1], 64 µg/mL (≈ 306 µM) in [2], 32 µg/mL (≈ 153 µM) in [3] and 16 µg/mL (≈ 76.5 µM) in [4]. The MBC in data set [5] was greater than 64 µg/mL; in data set [6], 64 µg/mL (≈ 306 µM); in [7], greater than 64 µg/mL; in data set [8], greater than 64 µg/mL. Also, the “Anti-leishmanial activity, in words” value in data set [9] was “inactive”.
With `CC/C(=C\c1ccc(OC)c(OC)c1)[N+](=O)[O-]` [Compound 24, 1,2-dimethoxy-4-((E)-2-nitrobut-1-enyl) benzene], the melting point was 78 to 80 °C. The “Anti-leishmanial activity, in words” value in data set [9] was “inactive”.
On to `C/C(=C\[N+](=O)[O-])c1ccc(O)cc1` [Compound 25, 4-((E)-1-nitroprop-1-en-2-yl)phenol], for which the melting point lay in the range of 88 to 90 °C. The “Anti-leishmanial activity, in words” value in data set [9] is on record as “loss of activity”.
Regarding `C/C(=C\c1c[nH]c2ccccc12)[N+](=O)[O-]` [Compound 29, 3-((E)-2-nitroprop-1-enyl)-1H-indole], the melting point was in the range of 182 to 184 °C. Further, in data set [1], the minimum inhibitory concentration (MIC) stood at 64 µg/mL (≈ 316 µM) and the MFC was 64 µg/mL (≈ 316 µM). In data set [2], the MIC stood at 16 µg/mL (≈ 79.1 µM) and the MFC turned out to be 16 µg/mL (≈ 79.1 µM). For the same compound, in [3], the MIC was 8 µg/mL (≈ 39.6 µM) and the MFC was found to be 8 µg/mL (≈ 39.6 µM). In addition, in [4], the MIC was determined as 8 µg/mL (≈ 39.6 µM) and the MFC came out at 8 µg/mL (≈ 39.6 µM). In data set [5], the MIC was greater than 64 µg/mL and the MBC was greater than 64 µg/mL. Also, in data set [6], the MIC is 8 µg/mL (≈ 39.6 µM) and the MBC came out at 8 µg/mL (≈ 39.6 µM). In [7], the MIC turned out to be 16 µg/mL (≈ 79.1 µM) and the MBC stood at 16 µg/mL (≈ 79.1 µM). In [8], the MIC is greater than 64 µg/mL and the MBC was greater than 64 µg/mL.
Consider `CC/C(=C\c1c[nH]c2ccccc12)[N+](=O)[O-]` [Compound 30, 3-((E)-2-nitrobut-1-enyl)-1H-indole], for which the melting point lay within 64 to 66 °C. In [1], the MIC is greater than 64 µg/mL and the MFC was greater than 64 µg/mL. Also, in data set [2], the MIC worked out at 64 µg/mL (≈ 296 µM) and the MFC came to 64 µg/mL (≈ 296 µM). In addition, in [3], the MIC is 32 µg/mL (≈ 148 µM) and the MFC was determined as 32 µg/mL (≈ 148 µM). Besides, in data set [4], the MIC worked out at 32 µg/mL (≈ 148 µM) and the MFC was found to be 64 µg/mL (≈ 296 µM). In data set [5], the MIC turned out to be 64 µg/mL (≈ 296 µM) and the MBC is greater than 64 µg/mL. Moreover, in data set [6], the MIC was found to be 8 µg/mL (≈ 37 µM) and the MBC is 8 µg/mL (≈ 37 µM). Further, in [7], the MIC was 16 µg/mL (≈ 74 µM) and the MBC is 16 µg/mL (≈ 74 µM). For the same compound, in data set [8], the MIC is greater than 64 µg/mL and the MBC is greater than 64 µg/mL.
